Assay: xn = mol fraction of the nth substance listed
Details: 283.65 K, Vibrating tube method

C=C [ethene] + CCO
Details	mass density [kg/m3]
Liquid mixture 1, x1 = 0.685	529.3
Liquid mixture 1, x1 = 0.712	503.5
Liquid mixture 2, x1 = 0.862	410
Liquid mixture 2, x1 = 0.892	385.6

Liquid
Details	mass density [kg/m3]
x1 = 0.101	767.8
x1 = 0.178	741.9
x1 = 0.268	708.7
x1 = 0.408	661.3
x1 = 0.512	614.1
x1 = 0.614	564.2
x1 = 0.94	347.3
x1 = 0.989	295.1
